Assays:
[1] = system: differentiated P19 neurons; test: Drug screening using differentiated P19 cell assay (neuroprotection against 3 mM glutamate and 1 mM glycine); format: cell-based, murine; conditions: dose response 0.005-3 μM, >1 = no observed maximum within highest dose tested (3 μM)
Method: Commercially available chemical libraries (BioFocus PLC, UK) were screened using the methods described herein. The stock concentration of the compounds was about 400 μM in DMSO. The concentration of compounds used in the primary screen was 1 μM. […] Columns 4-11 received compounds at the following final concentrations (μM): 3, 1.2, 0.48, 0.192, 0.077, 0.031, 0.012 and 0.005. Each row contained a different compound for confirmation. Only rows B-G received compounds, and rows A and H remained untreated.
Only the 4-pyrimidinamines are the subject of this invention, although limited data for 2-pyridinamines are presented as well. “% Inh” indicates the percentage of control cells surviving after 24 hours, and represents the neuroprotective effect of the compounds screened at 1 micromolar concentration. IC50 relate to data from dose response experiments. […] ND refers to compounds not tested in dose-response experiments.
The representative compounds listed in Tables IX<X, XI and XII were tested according to the procedure described in Example 5 with results as listed in Table XIII. Unless otherwise noted, molecular weights were measure on a Hewlitt-Packard Series 1050 Chemical Ionization mass spectrometer.

Male Wistar rats = test: Transient model of cerebral ischemia in rats (lesion volume); format: in vivo, rat; conditions: i.v., 1 hr post ischemia onset, 24 h, average of 12
Method: Male Wistar rats (Iffa Crédo, France), weighing 250-300 g, were housed 2 per cage under a light-dark cycle of 12 hr-12 hr (light on at 7:00 a.m., off at 7:00 p.m.) at a room temperature of 21±2° C., with 50±15% humidity, for a minimum of 5 days before the experiments. During this time, the rats had free access to commercial rat chow (Trouw Nutrition France, Vigny, France, ref. 811002) and tap water.
The animals were anaesthetized with 5% halothane in air for induction, then 1-2% halothane during surgery. The rat's body temperature was maintained at 37° C. with a heating pad. A 2 cm incision was made at the center of the neck and the right common carotid artery (CCA), external carotid artery (ECA) and internal carotid artery (ICA) were exposed under an operating microscope. The ICA was further dissected to identify the pterygopalatine artery (PA) branch and the intracranial ICA branch. The CCA was ligated. A 3-0 silk suture was tied at the origin of the ECA and ligated. A catheter (id=0.58 mm) was introduced into the CCA through a small puncture and advanced to the intracranial branch of the ICA. A 4-0 surgical nylon suture was introduced into the catheter. A length of approximately 19 mm of nylon suture was gently advanced from the CCA into the lumen of the ICA until the suture blocked the origin of the MCA. The suture was sealed into the catheter by heat, leaving 1 cm of catheter protruding so the suture could be withdrawn to allow reperfusion. The incision was closed using skin clips. Anaesthesia was then terminated and the animals were placed under heat lamps until recovery from anaesthesia. The rats awakened 10-15 min later. After 2 hr of ischemia, reperfusion was performed by withdrawal of the suture until the tip cleared the ICA lumen. Vehicle or test compound was administered intraperitoneally (i.p.) or intravenously (i.v.) at 1 hr post ischemia onset.
24 h after the onset of occlusion, the rats were killed by decapitation. The brains were immediately removed, frozen in isopentane and stored at −20° C. The brains were then cut in 20 μm thick sections in a cryocut. Every 20th slice was used to measure infarct area. The sections were stained with cresyl violet and the areas of infarct in the striatum and cortex were determined by planimetry using an image analysis software (Image, NIH) after digitalization of the section images.
Following the procedure described above, MK-801, compound #46 and compound #264 (as listed in the Tables herein) were evaluated for neuroprotective effects in rats with results as listed in Table VIII. The data represent average lesion volume in mm^3 for 12 measurements. Vehicle used was 15% solutol in 5% dextrose.

P19 neurons = test: P19 neuron viability / toxicity by Alamar blue fluorescence; format: cell-based, murine
Method: Alamar Blue fluorescence, an indicator of cell viability, was used to determine cell viability after an NMDA-induced cytotoxic insult. […] However, since raw fluorescence counts vary from experiment to experiment, FIGS. 2A, 2B, and 2C are expressed as a percent of control.
Glutamate toxicity dose response in the presence of a constant 1 mM glycine concentration was measured in the differentiated P19 neurons. The curve generated through the data points is the average of 6 separate dose response curves. Data points are represented as the percent of control cells±standard error. % control=(([Glutamate]exp−[Glutamate]max)/(Controlvehicle−[Glutamate]max))×100.
(§1) The second method for measuring cell viability was a plate reader method. Cells plated into black 96 well plates (Packard viewplates) were loaded with 5% Alamar Blue dye (Biosource International). Alamar Blue is a dye that takes advantage of mitochondrial reductases to convert non-fluorescent resazurin to fluorescent resorufin (excitation 535 nm, emission 580 nm). Baseline fluorescence counts were read at room temperature in a Wallac plate reader immediately after addition of Alamar blue. Fluorescence counts of cell viability were taken the same way after 1 hour incubation at 37° C. Fluorescence was expressed as a percent of control, untreated cells after subtraction of background fluorescence. Live/dead cells were confirmed visually with a light microscope.
Cells were then assayed for Alamar blue fluorescence. The curve generated through the data points is the average of 3 separate dose response curves. Data points are represented as percent of control cells±standard error.

CAMKII = conditions: read-out: Potency, Ki, CAMKII; cited from earlier work
[2] = system: differentiated P19 neurons; test: Differentiated P19 excitotoxicity assay: neuroprotection by known kinase inhibitors against glutamate/glycine (Alamar Blue, CFDA); format: cell-based, murine; conditions: 3 mM glutamate, 1 mM glycine
Method: Data points are the average±standard error of three separate experiments.
These cells were used to measure the effects of various known kinase inhibitors (Compound Identification (ID) column in Table I) upon cytotoxicity-induced by NMDA. First, P19 cells were differentiated as described in Example 2. Then cells were exposed to 3 mM of glutamate in the presence of 1 mM glycine.
Cell viability was determined. Compounds that prevented excitotoxicity were determined by measuring the percentage of viable cells compared to differentiated P19 cells that were not presented with a toxic insult (Table I).
Cell viability was measured using two methods. The first method was a confocal, single-cell fluorescence imaging-based method using the live cell dye carboxy-fluorescein diacetate (CFDA). CFDA labels the cell bodies and processes of living cells. […] CFDA fluorescence was measured using a modified Attofluor Imager device (Atto Instruments, Rockville Pike, Md.). Cells were labeled with 1 uM CFDA for 15 min in media, then placed onto the stage of the Attofluor microscope. The dye was excited by light from a mercury lamp source passed through a 488 nm bandpass filter of 10 nm band width, passed through a CARV real-time confocal spinning disk module (Atto Instruments, Rockville, Md.), and then passed through a 40×oil immersion objective (Zeiss Fluar, NA=1.3). Emitted light was transmitted through a 495 nm dichroic mirror, collected to an Attofluor intensified CCD camera, and images were visualized using Attofluor Ratio Vision software (Atto Instruments, Rockville, Md.).
as §1
Kinase inhibition activities and potencies were derived from the literature (Chijiwa et al. 1990; Favata et al. 1998; Henry et al. 1998; Inhorn and Majerus 1987; Kobayashi et al. 1989; Lee et al. 1994; Onoda et al. 1989; Tokumitsu et al. 1990). […] Curves were fit, and confidence intervals were determined using GraphPad Prism software.

For `CN(C)c1ccc(Nc2cc(-c3ccc4ccccc4c3)ncn2)cc1` [Cmpd 41], the IC50 [1] was 0.54 µM.

For `CN(C)c1ccc(Nc2cc(-c3ccc(OCc4ccccc4)cc3)ncn2)cc1` [Cmpd 42, 1,4-benzenediamine, N^1,N^1-dimethyl-N^4-[6-[4-(phenylmethoxy)phenyl]-4-pyrimidinyl]-], the IC50 [1] was 0.2 µM.

Compound `CN(C)c1ccc(Nc2cc(-c3cccc(-c4ccccc4)c3)ncn2)cc1` [Cmpd 43, 1,4-benzenediamine, N^1-(6-[1,1′-biphenyl]-3-yl-4-pyrimidinyl)-N^4,N^4-dimethyl-] has an IC50 ([1]; Mus musculus, Neuron) of 0.22 µM.

With `CN(C)c1ccc(Nc2cc(-c3cc(C(F)(F)F)cc(C(F)(F)F)c3)ncn2)cc1` [Cmpd 44, 1,4-benzenediamine, N^1-[6-[3,5-bis(trifluoromethyl)phenyl]-4-pyrimidinyl]-N^4,N^4-dimethyl-] the IC50 ([1]; Mus musculus, Neuron) was 0.26 µM.

In the case of `CCN(CCO)c1ccc(Nc2cc(-c3ccc4ccccc4c3)ncn2)cc1` [Cmpd 45], the IC50 [1] is reported as 0.57 µM.

For `CCN(CCO)c1ccc(Nc2cc(-c3cccc(-c4ccccc4)c3)ncn2)cc1` [Cmpd 46, ethanol, 2-[[4-[(6-[1,1′-biphenyl]-3-yl-4-pyrimidinyl)amino]phenyl]ethylamino]-], the IC50 ([1]; Mus musculus, Neuron) was 0.07 µM, the “Cortex + Striatum Vol. (mm^3)” value (Male Wistar rats; 0.6 mg/kg) was 326.6 ± 26.0 mm^3 and the “Cortex Vol. (mm^3)” value (Male Wistar rats; 0.6 mg/kg) was 247.6 ± 24.8 mm^3. For the same compound, the “Striatum Vol. (mm^3)” value (Male Wistar rats; 0.6 mg/kg) was 79.1 ± 3.0 mm^3, the “Cortex + Striatum Vol. (mm^3)” value (Male Wistar rats; 3 mg/kg) was 290.8 ± 28.1 mm^3 and the “Cortex Vol. (mm^3)” value (Male Wistar rats; 3 mg/kg) was 214.7 ± 26.6 mm^3. For the same compound, the “Striatum Vol. (mm^3)” value (Male Wistar rats; 3 mg/kg) was 76.1 ± 2.8 mm^3.

`CCN(CCO)c1ccc(Nc2cc(-c3ccc(-c4ccccc4)cc3)ncn2)cc1` [Cmpd 47] gave an IC50 ([1]; Mus musculus, Neuron) of 0.49 µM.

With `CCN(CCO)c1ccc(Nc2cc(-c3cc(C(F)(F)F)cc(C(F)(F)F)c3)ncn2)cc1` [Cmpd 48] the IC50 [1] was 0.48 µM.

Compound `CCN(CCO)c1ccc(Nc2cc(-c3cccc([N+](=O)[O-])c3)ncn2)cc1` [Cmpd 49] has an IC50 ([1]; Mus musculus, Neuron) of 0.55 µM.

With `CCN(CCO)c1ccc(Nc2cc(-c3ccc(SC)cc3)ncn2)cc1` [Cmpd 50] the IC50 ([1]; Mus musculus, Neuron) was 0.41 µM.

`CCN(CCO)c1ccc(Nc2cc(-c3ccc(OC(F)(F)F)cc3)ncn2)cc1` [Cmpd 51, ethanol, 2-[ethyl[4-[[6-[4-(trifluoromethoxy)phenyl]-4-pyrimidinyl]amino]phenyl]amino]-] gave an IC50 ([1]; Mus musculus, Neuron) of 0.23 µM.

Compound `CCN(CCO)c1ccc(Nc2cc(C3C=C4C=CC=CC4O3)ncn2)cc1` (stereo not shown) [Cmpd 53] has an IC50 ([1]; Mus musculus, Neuron) of 0.54 µM.

Work on `CCN(CCO)c1ccc(Nc2cc(-c3cc4ccccc4s3)ncn2)cc1` [Cmpd 54, ethanol, 2-[[4-[(6-benzo[b]thien-2-yl-4-pyrimidinyl)amino]phenyl]ethylamino]-] yielded an IC50 ([1]; Mus musculus, Neuron) of 0.24 µM.

In the case of `CCN(CCO)c1ccc(Nc2cc(-c3ccsc3)ncn2)cc1` [Cmpd 55], the IC50 ([1]; Mus musculus, Neuron) is reported as 0.86 µM.

Compound `CCN(CCO)c1ccc(Nc2cc(-c3ccccc3Oc3ccccc3)ncn2)cc1` [Cmpd 56] has an IC50 ([1]; Mus musculus, Neuron) of 0.57 µM.

In the case of `CCN(CCO)c1ccc(Nc2cc(-c3cnc(OCc4ccccc4)nc3OCc3ccccc3)ncn2)cc1` [Cmpd 58, 2-{[4-(2′,4′-is-benzyloxy-[4,5′]bipyrimidinyl-6-ylamino)-phenyl]-ethyl-amino}-ethanol], the IC50 ([1]; Mus musculus, Neuron) is reported as 0.39 µM.

With `CN(C)c1ccc(Nc2cc(-c3cc4ccccc4o3)ncn2)cc1` [Cmpd 59] the IC50 [1] was 0.48 µM.

In the case of `CN(C)c1ccc(Nc2cc(-c3cccc4ccccc34)ncn2)cc1` [Cmpd 61], the IC50 ([1]; Mus musculus, Neuron) is reported as greater than 1 µM.

For `CN(C)c1ccc(Nc2cc(-c3ccc(C#N)cc3)ncn2)cc1` [Cmpd 62], the IC50 ([1]; Mus musculus, Neuron) was greater than 1 µM.

Work on `CN(C)c1ccc(Nc2cc(-c3ccccc3Oc3ccccc3)ncn2)cc1` [Cmpd 63] yielded an IC50 ([1]; Mus musculus, Neuron) greater than 1 µM.

With `CCN(CCO)c1ccc(Nc2cc(-c3ccc(C#N)cc3)ncn2)cc1` [Cmpd 64] the IC50 ([1]; Mus musculus, Neuron) was greater than 1 µM.

Compound `Oc1ccc(-c2cc(Nc3ccc(N4CCN(c5ccccc5)CC4)cc3)ncn2)cc1` [Cmpd 65] has an IC50 ([1]; Mus musculus, Neuron) greater than 1 µM.

`CCN(CCO)c1ccc(Nc2cc(-c3ccc(CNC(=O)OC(C)(C)C)cc3)ncn2)cc1` [Cmpd 147] showed an IC50 ([1]; Mus musculus, Neuron) of 1.09 µM.

`CCN(CCO)c1ccc(Nc2cc(-c3cccc(N(C)C)c3)ncn2)cc1` [Cmpd 148] showed an IC50 ([1]; Mus musculus, Neuron) of 0.47 µM.

With `CN(C)c1ccc(Nc2cc(-c3ccc(N(C)C)cc3)ncn2)cc1` [Cmpd 149] the IC50 ([1]; Mus musculus, Neuron) was 0.33 µM.

With `CCn1c2ccccc2c2ccc(Nc3cc(-c4ccc(OC)c(OC)c4)ncn3)cc21` [Cmpd 151] the IC50 [1] was greater than 1 µM.

In the case of `CCn1c2ccccc2c2ccc(Nc3cc(-c4cc(OC)c(OC)c(OC)c4)ncn3)cc21` [Cmpd 152], the IC50 [1] is reported as greater than 1 µM.

For `CCn1c2ccccc2c2ccc(Nc3cc(-c4ccc(N5CCN(C)CC5)cc4)ncn3)cc21` [Cmpd 154], the IC50 [1] was 0.55 µM.

For `N[C@@H](CCC(=O)O)C(=O)O` [Glutamate], the “reduction in Alamar blue fluorescence” value (P19 neurons; 3 mM glutamate and 1 mM glycine for 24 hours) was 60% and the EC50 (P19 neurons; constant 1 mM glycine, 24 hours, average of 6 curves, read-out: Glutamate toxicity EC50) was 8100 nM.

In the case of `NCC(=O)O` [Glycine], the “effect on basal P19 neuron viability, substance alone” value (P19 neurons; no inducer of toxicity (U0126: 10 μM)) is reported as “did not affect P19 neuron viability”.

For `O=S(=O)(NCCNC/C=C/c1ccc(Br)cc1)c1cccc2cnccc12` [H-89], the Ki (CAMKII) is listed as roughly 30000 nM, the “Maximal Efficacy for Neuroprotection” value [2] is listed as less than 25% and the IC50 ([2]; mean of three separate curves, read-out: IC50 for Neuroprotection [lower-upper 95% C.I.]) is listed as greater than 10000 nM.

For `CN([C@@H](Cc1ccc(OS(=O)(=O)c2cccc3cnccc23)cc1)C(=O)N1CCN(c2ccccc2)CC1)S(=O)(=O)c1cccc2cnccc12` [KN62], the Ki (CAMKII) is listed as roughly 900 nM, the “Maximal Efficacy for Neuroprotection” value [2] is listed as less than 10% and the “IC50 for Neuroprotection [lower-upper 95% C.I.]” value ([2]; mean of three separate curves) is listed as “Ineffective”.

From patent US20040006094A1, “4-pyrimidinamine derivatives, pharmaceutical compositions and related methods” (priority 2000, published 2004)
